Like-named read-outs stand apart in the source and are kept apart here.
Legend:
[1] = target: T1, TTR tetramer (Homo sapiens, UniProt P02766); assay: Urea denaturation (tetramer dissociation, tryptophan fluorescence); format: biochemical; settings: TTR 1.8 μM, inhibitor 5.4 μM (1:3), 6 M urea, 25° C., up to […]
T1 construct: made in house

[2] = target: T2, WT-TTR (Homo sapiens, UniProt P02766); assay: Stagnant acid-mediated TTR aggregation (fibril formation) assay, turbidity at 340 nm; format: biochemical; settings: for remaining activity at 7.2 µM / remaining activity at 21.6 µM / remaining activity at 50 µM: 72 h; for remaining activity at 50 µM: read-out: % FF at 50 μM; for inhibition of TTR fibrillization: inhibitor 21.6 μM
T2 construct: made in house
Procedure: Stagnant Acid-Mediated TTR Aggregation Assay.
After 1 h, the samples were diluted with 0.5 ml of 200 mM sodium acetate buffer containing 100 mM KCl and 1 mM EDTA. Samples after mild vortexing were incubated at 37° C. for the desired amount of time without stirring to evaluate the efficacy of the inhibitors. The extent of aggregation was probed by turbidity measurements at 340 nm using Tecan GENios microplate reader. […] The extent of TTR fibril formation in the absence of inhibitor was defined to be 100%. […] All experiments were done in triplicate. […] The IC50 was determined by plotting mean of % inhibition vs log and fitted to sigmoid equation:
(§1) The experiments were conducted at 25° C. After 1 h, the samples were diluted with 0.5 mL of 200 mM sodium acetate buffer pH 4.4 containing 100 mM KCl and 1 mM EDTA, vortexed, and incubated at 37° C. for 72 h. […] The stoichiometry of the binding of the inhibitors was determined by HPLC as described by Green et al., N. S. Palaninathan, S, L, Sacchettini, J. e. […] Dissociation constant of binding of these compounds to TTR was determined by fluorescence titration, and data were fitted into the Adair equation for two bind mg.

[3] = target: T3, TTR (Homo sapiens, UniProt P02766); assay: Time course (kinetics) of fibril formation, turbidity at 340 nm for 3 h; format: biochemical; settings: TTR 7.2 μM, inhibitor 21.6 μM, 37° C., pH 4.4, 3 h
T3 construct: made in house
Procedure: Time Course of Fibril Formation. The kinetics of inhibition was studied by incubating […] TTR with […] of different inhibitors in 100 µl of 5 mM phosphate buffer pH 7.2 for 30 min in a 96 microwell plate. […] of 0.2 M sodium acetate buffer pH 4.4 containing 1 mM EDTA and 100 mM KCl was added. The difference in turbidity was assessed by measuring the change in absorbance at 340 nm on Tecan GEnios microplate reader using Magellan software. For kinetics, parameters were set for 30 cycles at 37° C. at the interval of 5 min each and 2 min orbital shaking (low speed) between cycles and 10 sec shaking (normal speed) before measurement. All experiments were performed in triplicates. Change in absorbance at 340 nm was plotted against time in the presence and absence of inhibitors initial rate of fibril formation was calculated from the slope by linear fitting of the data.
All experiments were performed three times in triplicates. Change in absorbance (mean of three different experiments) at 340 nm was plotted against time in the presence and absence of inhibitors. Initial rate of fibril form action was calculated from the value of the slope by linear fitting of the change in absorbance at 340 nm as a function of time.

[4] = target: T4, TTR fibers (Homo sapiens, UniProt P02766); assay: Fibril disruption assay; format: biochemical; settings: three doses (7.2 μM each), 15 days, Th-T fluorescence
T4 construct: made in house
Procedure: Fibril Disruption Assay. […] The disruption was followed for 7 days by turbidity measurements at 340 nm and Th-T fluorescence. A second dose of the inhibitor (7.2 μM) was added after 24 h of incubation, and samples were incubated and monitored further for 5-6 days. After 15-20 days of incubation, samples were examined by transmission electron microscopy (TEM). All experiments were done thrice in triplicates each time.

[5] = target: T3, TTR; assay: Dissociation constant by fluorescence titration (Adair equation, two sites); format: binding
Procedure: as §1
Small aliquots of 1 mM ligands solutions were successively added to the […] in 100 mM sodium acetate buffer pH 4.4 at […] under constant stirring. After each addition sample was left for 2 min. […] Readings were corrected for buffer blank, dilution and inner filter effect. The inner filter effect was corrected by using the following equation,
From the titration data the dissociation constant was determined by fitting data in following Adair equation for two binding sites-

[6] = 50% reduction in fibril formation, TTR 7.2 μM, pH 4.4, read-out: IC50 ± SE
[7] = biphenyl ether 50 μM, WT-TTR 7.2 μM
[8] = pH 4.4, TTR 7.2 μM, inhibitor 7.2 μM (1:1), pH 4.4, 37° C., no inhibitor = 100%, read-out: % FF 1:1
[9] = pH 4.4, TTR 7.2 μM, inhibitor 21.6 μM (1:3), pH 4.4, 37° C., no inhibitor = 100%, read-out: % FF 1:3
[10] = TTR amyloid formation, 37° C., read-out: IC50
[11] = Table 3, WT-TTR 7.2 μM, read-out: IC50
[12] = pH 4.4; read-out: Dissociation Constant Kd1
[13] = pH 4.4; read-out: Dissociation Constant Kd2

Compound | protein dissociates (tetramer dissociation) [1] | remaining activity at 7.2 µM ([2]; pH 4.4, read-out: % FF 1:1) | remaining activity at 21.6 µM ([2]; pH 4.4, read-out: % FF 1:3) | remaining activity at 50 µM [2] | inhibition at 21.6 µM ([2]; pH 4.4, read-out: inhibition of fibril formation) | inhibition at 21.6 µM [3] | disruption of preformed TTR fibers [4] | IC50 [2, 6] | remaining activity at 50 µM [2, 7] | remaining activity at 7.2 µM [2, 8] | remaining activity at 21.6 µM [2, 9] | IC50 [2, 10] | IC50 [2, 11] | Kd [5, 12] | Kd [5, 13] | inhibition of TTR fibrillization ([2]; TTR 7.2 μM) | Kd ([5]; read-out: Dissociation Constant Kd2; pH 4.4) | IC50 [2] | % FF 1:1 ([2]; TTR 7.2 μM, inhibitor 7.2 μM (1:1), pH 4.4, 37° C., no inhibitor = 100%) | % FF 1:3 ([2]; TTR 7.2 μM, inhibitor 21.6 μM (1:3), pH 4.4, 37° C., no inhibitor = 100%)
Oc1cc(Cl)ccc1Oc1ccc(Cl)cc1Cl [Compound 1, Triclosan, reference compound] | 47% | 75% | 66% | 41% | ~24% | 62% | – | – | – | – | – | – | – | – | – | – | – | – | – | –
COc1cc(C=O)ccc1Oc1ccccc1 [Compound 9] | – | – | – | – | – | > 80% | more effective | 1.31 ± 0.08 µM | 0% | 12% | 0% | 0.47 to 3.5 µM | 1.31 µM | 0.088 ± 0.0101 µM | – | – | – | – | – | –
OCc1ccc(Oc2ccc(Cl)cc2Cl)c(O)c1 [Compound 4] | – | – | – | – | – | > 80% | more effective | 1.36 ± 0.05 µM | 11.5% | 12% | 2.6% | 0.47 to 3.5 µM | 1.36 µM | 0.0003 ± 0.00014 µM | 13.8 ± 1.02 µM | – | – | – | – | –
O=C(O)c1ccc(Oc2ccc(Cl)cc2Cl)c(O)c1 [Compound 7] | 21% | – | – | – | – | > 80% | – | 2.59 ± 0.14 µM | 0% | 29% | 13.3% | 0.47 to 3.5 µM | 2.59 µM | 0.027 ± 0.00803 µM | 0.003 ± 0.00078 µM | – | – | – | – | –
Oc1ccccc1-c1nnc(S)o1 [Compound 11] | – | – | – | – | – | > 80% | – | 3.1 ± 0.05 µM | – | 21% | 0% | 0.47 to 3.5 µM | – | 0.042 ± 0.00235 µM | 0.0726 ± 0.0103 µM | completely | – | – | – | –
O=Cc1ccc(Oc2ccc(Cl)cc2Cl)c(O)c1 [Compound 2] | – | – | – | – | – | > 80% | – | – | – | – | – | – | – | 0.0139 ± 0.00501 µM | – | – | 0.525 ± 0.0601 µM | – | – | –
COc1cc(CCl)ccc1Oc1ccc(Cl)cc1Cl [Compound 5] | – | – | – | – | – | > 80% | more effective | 3.16 ± 0.04 µM | 0% | 26% | 0% | – | 3.16 µM | – | – | – | – | 0.47 to 3.5 µM | – | –
COc1cc(C(=O)O)ccc1Oc1ccc(Cl)cc1Cl [Compound 6] | – | – | – | – | – | > 80% | more effective | – | 0% | 10% | 0% | – | – | – | – | – | – | – | – | –
N[C@H](Cc1cc(I)c(Oc2cc(I)c(O)c(I)c2)c(I)c1)C(=O)O (stereo in doubt) [Compound 13, thyroxine, reference compound] | 27% | – | – | – | – | 75% | – | – | – | – | – | – | – | – | – | – | – | – | 48% | 7%
O=C(Nc1nnc[nH]1)c1c(Cl)ccc(Cl)c1Cl [Compound 12] | – | – | – | – | – | > 80% | more effective | 1.06 ± 0.01 µM | – | 11% | 3.6% | 0.47 to 3.5 µM | – | 0.12 ± 0.0321 µM | – | completely | – | – | – | –

— patent publication US20100190832A1, “Mechanism-based inhibitors of transthyretin amyloidosis: studies with biphenyl ethers and structural templates” (NATIONAL INSTITUTE OF IMMUNOLOGY., priority 2008, published 2010)
